Test results from patent US8759535B2, “Substituted fused imidazole derivatives, pharmaceutical compositions, and methods of use thereof” (High Point Pharmaceuticals, LLC, priority 2010, dated 2014).

Test system: HMOX1
Test: HMOX1 Protein Assay (immunostaining of HO-1 in NHLF cells, GE InCell 1000)
Assay type: cell-based
Details: Homo sapiens, fold change above DMSO treated cells, 16 h; for fold induction at 5 µM: 5 μM compound; for fold induction at 3 µM: 3 μM compound (asterisk)
Method in brief: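 Fold induction of HO-1 over vehicle, normally at 5 μM compound (asterisk marks 3 μM), in 0.8% DMSO medium. Normal human lung fibroblasts were treated 16 h, then paraformaldehyde-fixed, anti-HO-1/Alexa 488 stained with Hoechst, and read by high-content imaging.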

SMILES | fold induction at 5 µM | fold induction at 3 µM
CCn1c(Nc2nc3ccc(OC(F)(F)F)cc3s2)nc2cc(C(=O)NCC(=O)N(C)C)ccc21 [Example 186, 1-Ethyl-2-(6-trifluoromethoxy-benzothiazol-2-ylamino)-1H-benzoimidazole-5-carboxylic acid dimethylcarbamoylmethyl-amide] | 20.2 | –
CCn1c(Nc2nc3ccc(C(F)(F)F)cc3s2)nc2cc(C(=O)NCC(=O)N(C)C)ccc21 [Example 187, 1-Ethyl-2-(6-trifluoromethyl-benzothiazol-2-ylamino)-1H-benzoimidazole-5-carboxylic acid dimethylcarbamoylmethyl-amide] | 18.4 | –
COCCn1c(Nc2nc3ccc(OC(F)(F)F)cc3s2)nc2cc(C(=O)NCC(=O)N(C)C)ccc21 [Example 188, 1-(2-Methoxy-ethyl)-2-(6-trifluoromethoxy-benzothiazol-2-ylamino)-1H-benzoimidazole-5-carboxylic acid dimethylcarbamoylmethyl-amide] | 18.3 | –
COCCn1c(Nc2nc3ccc(OC(F)(F)F)cc3s2)nc2cc(C(=O)NCC(=O)N3CCN(C)CC3)ccc21 [Example 189, 1-(2-Methoxy-ethyl)-2-(6-trifluoromethoxy-benzothiazol-2-ylamino)-1H-benzoimidazole-5-carboxylic acid [2-(4-methyl-piperazin-1-yl)-2-oxo-ethyl]-amide] | 24.6 | –
CCn1c(Nc2nc3ccc(OC(F)(F)F)cc3s2)nc2cc(C(=O)NCC(=O)N3CCN(C)CC3)ccc21 [Example 190, 1-Ethyl-2-(6-trifluoromethoxy-benzothiazol-2-ylamino)-1H-benzoimidazole-5-carboxylic acid [2-(4-methyl-piperazin-1-yl)-2-oxo-ethyl]-amide] | 23.4 | –
CCn1c(Nc2nc3ccc(Oc4cccnc4)cc3s2)nc2cc(C(=O)NCCOC)ccc21 [Example 191, 1-Ethyl-2-[6-(pyridin-3-yloxy)-benzothiazol-2-ylamino]-1H-benzoimidazole-5-carboxylic acid (2-methoxy-ethyl)-amide] | 33.8 | –
Cn1c(Nc2nc3ccc(OC(F)(F)F)cc3s2)nc2cc(C(=O)NCCN3CCC(O)CC3)ccc21 [Example 192, 1-Methyl-2-(6-trifluoromethoxy-benzothiazol-2-ylamino)-1H-benzoimidazole-5-carboxylic acid [2-(4-hydroxy-piperidin-1-yl)-ethyl]-amide] | 28.8 | –
Cn1c(Nc2nc3ccc(OC(F)(F)F)cc3s2)nc2cc(C(=O)NCCN3CCCC(O)C3)ccc21 (stereo not drawn) [Example 193, 1-Methyl-2-(6-trifluoromethoxy-benzothiazol-2-ylamino)-1H-benzoimidazole-5-carboxylic acid [2-(3-hydroxy-piperidin-1-yl)ethyl]-amide] | 11.1 | –
Cn1c(Nc2nc3ccc(OC(F)(F)F)cc3s2)nc2cc(C#N)ccc21 [Example 194, 1-Methyl-2-(6-trifluoromethoxy-benzothiazol-2-ylamino)-1H-benzoimidazole-5-carbonitrile] | 6 | –
Cn1c(Nc2nc3ccc(OC(F)(F)F)cc3s2)nc2ccc(C#N)cc21 [Example 195, 1-Methyl-2-(6-trifluoromethoxy-benzothiazol-2-ylamino)-1H-benzoimidazole-6-carbonitrile] | 4.4 | –
Cn1c(Nc2nc3ccc(OC(F)(F)F)cc3s2)nc2cc(-c3ncc[nH]3)ccc21 [Example 196, [5-(1H-Imidazol-2-yl)-1-methyl-1H-benzimidazol-2-yl]-(6-trifluoromethoxy-benzothiazol-2-yl)-amine] | 11.4 | –
Cn1c(Nc2nc3ccc(OC(F)(F)F)cc3s2)nc2ccc(-c3nc[nH]n3)cc21 [Example 197, [1-Methyl-6-(1H-1,2,4-triazol-3-yl)-1H-benzimidazol-2-yl]-(6-trifluoromethoxy-benzothiazol-2-yl)-amine] | 18 | –
Cc1nc(-c2ccc3nc(Nc4nc5cc(OC(F)(F)F)ccc5s4)n(C)c3c2)n[nH]1 [Example 198, [1-Methyl-6-(5-methyl-1H-1,2,4-triazol-3-yl)-1H-benzimidazol-2-yl]-(5-trifluoromethoxy-benzothiazol-2-yl)-amine] | 12 | –
CCn1c(Nc2nc3ccc(OC(F)(F)F)cc3s2)nc2cc(S(=O)(=O)C(F)(F)F)ccc21 [Example 199, (1-Ethyl-5-trifluoromethanesulfonyl-1H-benzoimidazol-2-yl)-(6-trifluoromethoxy-benzothiazol-2-yl)-amine] | 1.5 | –
CC(=O)c1ccc2c(c1)nc(Nc1nc3ccc(OC(F)(F)F)cc3s1)n2C [Example 200, 1-[1-Methyl-2-(6-trifluoromethoxy-benzothiazol-2-ylamino)-1H-benzoimidazol-5-yl]-ethanone] | 22.9 | –
Cn1c(Nc2nc3ccc(OC(F)(F)F)cc3s2)nc2cc(S(C)(=O)=O)ccc21 [Example 201, (5-Methanesulfonyl-1-methyl-1H-benzoimidazol-2-yl)-(6-trifluoromethoxy-benzothiazol-2-yl)-amine] | 26.5 | –
Cn1c(Nc2nc3ccc(OC(F)(F)F)cc3s2)nc2ccc(CC(N)=O)cc21 [Example 202, 2-[1-Methyl-2-(6-trifluoromethoxy-benzothiazol-2-ylamino)-1H-benzoimidazol-6-yl]-acetamide] | 15.6 | –
C[C@@H](O)CNC(=O)c1ccc2c(c1)nc(Nc1nc3ccc(Cl)cc3s1)n2C [Example 203, 2-(6-Chloro-benzothiazol-2-ylamino)-1-methyl-1H-benzoimidazole-5-carboxylic acid ((R)-2-hydroxy-propyl)-amide] | – | 18.7
C[C@H](O)CNC(=O)c1ccc2c(c1)nc(Nc1nc3ccc(Cl)cc3s1)n2C [Example 204, 2-(6-Chloro-benzothiazol-2-ylamino)-1-methyl-1H-benzoimidazole-5-carboxylic acid ((S)-2-hydroxy-propyl)-amide] | – | 19.3
C[C@@H](O)CNC(=O)c1ccc2c(c1)nc(Nc1nc3ccc(C(F)(F)F)cc3s1)n2C [Example 205, 1-Methyl-2-(6-trifluoromethyl-benzothiazol-2-ylamino)-1H-benzoimidazole-5-carboxylic acid ((R)-2-hydroxy-propyl)-amide] | – | 33.1
C[C@H](O)CNC(=O)c1ccc2c(c1)nc(Nc1nc3ccc(C(F)(F)F)cc3s1)n2C [Example 206, 1-Methyl-2-(6-trifluoromethyl-benzothiazol-2-ylamino)-1H-benzoimidazole-5-carboxylic acid ((S)-2-hydroxy-propyl)-amide] | – | 27
COC(C)(C)CNC(=O)c1ccc2c(c1)nc(Nc1nc3ccc(Cl)cc3s1)n2C [Example 207, 2-(6-Chloro-benzothiazol-2-ylamino)-1-methyl-1H-benzoimidazole-5-carboxylic acid (2-methoxy-2-methyl-propyl)-amide] | – | 11.8
COC(C)(C)CNC(=O)c1ccc2c(c1)nc(Nc1nc3ccc(C(F)(F)F)cc3s1)n2C [Example 208, 1-Methyl-2-(6-trifluoromethyl-benzothiazol-2-ylamino)-1H-benzoimidazole-5-carboxylic acid (2-methoxy-2-methyl-propyl)-amide] | – | 26.5
Cn1c(Nc2nc3ccc(Cl)cc3s2)nc2cc(C(=O)NCCF)ccc21 [Example 209, 2-(6-Chloro-benzothiazol-2-ylamino)-1-methyl-1H-benzoimidazole-5-carboxylic acid (2-fluoro-ethyl)-amide] | – | 14.2
